Common to all, as to assay type: cell-based
In experiment [1] the test system is Tyromyces palustris. In words: Plate medium assay, wood denaturing microorganism Oouzuratake (Experimental Example 5). The conditions noted are these: treatment at 50 mg/l, PDA plate medium; read-out: growth inhibition grade. The procedure: (§1) In this Experimental Example, the fungicidal effects of the inventive compounds on various phytopathogenic fungi for plants and hazardous microorganism for industrial materials were examined by the methods described below. Each inventive compound was dissolved in 2 ml of dimethyl sulfoxide. 0.6 ml of this solution was added to 60 nil of a PDA medium (potato dextrose agar medium) at about 60 degrees C., which was mixed thoroughly in a 100-ml conical flask, and poured into a dish, where it was solidified, thereby obtaining a plate medium containing the inventive compound at 50 mg/L and 5 mg/L. On the other hand, a subject microorganism previously cultured on a plate medium was cut out using a cork borer whose diameter was 4 mm, and inoculated to the test compound-containing plate medium described above. […] The growth degree of the microorganism on the test compound-containing plate medium thus observed was compared with the growth degree of the microorganism in the untreated group, and % mycelial growth inhibition was calculated by the following equation. R=100(dc-dt)/dc wherein R=% mycelial extension inhibition, dc=flora diameter in untreated plate, dt=flora diameter in treated plate. The results obtained as described above were evaluated as one of the 5 grades according to the following criteria.

Experiment [2] deals with Alternaria alternata. In words: Plate medium fungicidal assay, Alternaria blotch A.m (Experimental Example 5). The conditions noted are these: for inhibition at 5 µg/mL / inhibition at 50 µg/mL: Alternaria alternata. The procedure: as §1, with “R=100(dc−dt)/dc” for “R=100(dc-dt)/dc”, “criteria. […] Alternaria blotch (Alternaria alternata) A.m” for “criteria.”
In experiment [3] the test system is Ustilago nuda. In words: Plate medium fungicidal assay, barley loose smut U.n (Experimental Example 5). As to conditions: for inhibition at 5 µg/mL / inhibition at 50 µg/mL: Ustilago nuda. The procedure: as §1, with “R=100(dc−dt)/dc” for “R=100(dc-dt)/dc”, “criteria. […] Barley loose smut (Ustilago nuda) U.n” for “criteria.”
The subject of experiment [4] is Giberella fujikuroi. In words: Plate medium fungicidal assay, rice bakanae disease G.f (Experimental Example 5). As for the experimental part: as §1, with “R=100(dc−dt)/dc” for “R=100(dc-dt)/dc”, “criteria. […] Rice bakanae disease (Giberella fujikuroi) G.f” for “criteria.”
Experiment [5] relates to Curvularia sp. In words: Plate medium assay, industrial material deteriorating microorganism, Curvularia (Experimental Example 5). The conditions noted are these: treatment at 50 mg/l, PDA plate medium, read-out: growth inhibition grade. As for the experimental part: as §1
Experiment [6] deals with Sclerotinia sclerotiorum. In words: Plate medium fungicidal assay, Sclerotinia rot S.s (Experimental Example 5). As to conditions: for inhibition at 5 µg/mL / inhibition at 50 µg/mL: Sclerotinia sclerotiorum. As for the experimental part: as §1, with “R=100(dc−dt)/dc” for “R=100(dc-dt)/dc”, “criteria. […] Sclerotinia rot (Sclerotinia sclerotiorum) S.s” for “criteria.”
The test system of experiment [7] is Fusarium graminearum. In words: microbe, parasite or virus in culture. As to conditions: for inhibition at 5 µg/mL / inhibition at 50 µg/mL: Fusarium graminearum.
For experiment [8], the system named is Pyricularia oryzae. In words: microbe, parasite or virus in culture. The conditions noted are these: for inhibition at 5 µg/mL / inhibition at 50 µg/mL: Pyricularia oryzae.
[9] abbreviates: plate medium containing compound at 5 mg/L, read-out: Growth inhibition grade, A.m.
Setting [10] is: plate medium containing compound at 50 mg/L, read-out: Growth inhibition grade, A.m.
The mark [11] stands for this setting: plate medium containing compound at 5 mg/L, read-out: Growth inhibition grade, U.n.
The mark [12] stands for this setting: plate medium containing compound at 50 mg/L, read-out: Growth inhibition grade, U.n.
[13] abbreviates: plate medium containing compound at 5 mg/L, read-out: Growth inhibition grade, G.f.
Where [14] appears, read: plate medium containing compound at 50 mg/L, read-out: Growth inhibition grade, G.f.
Where [15] appears, read: plate medium containing compound at 5 mg/L, read-out: Growth inhibition grade, S.s.
The mark [16] stands for this setting: plate medium containing compound at 50 mg/L, read-out: Growth inhibition grade, S.s.
The mark [17] stands for this setting: read-out: Growth inhibition grade, F.g.
Where [18] appears, read: read-out: Growth inhibition grade, P.o.
Where [19] appears, read: plate medium, 5 mg/L, read-out: growth inhibition grade A.m.
Where [20] appears, read: plate medium, 50 mg/L, read-out: growth inhibition grade A.m.
Where [21] appears, read: plate medium, 5 mg/L, read-out: growth inhibition grade U.n.
Setting [22] is: plate medium, 50 mg/L, read-out: growth inhibition grade U.n.
[23] abbreviates: plate medium, 5 mg/L, read-out: growth inhibition grade G.f.
Where [24] appears, read: plate medium, 50 mg/L, read-out: growth inhibition grade G.f.
[25] abbreviates: plate medium, 5 mg/L, read-out: growth inhibition grade S.s.
The mark [26] stands for this setting: plate medium, 50 mg/L, read-out: growth inhibition grade S.s.
The mark [27] stands for this setting: read-out: growth inhibition grade F.g.
[28] abbreviates: read-out: growth inhibition grade P.o.
Setting [29] is: plate medium containing compound at 5 mg/L.
The mark [30] stands for this setting: plate medium containing compound at 50 mg/L.

Like-named read-outs stand apart in the source and are kept apart here. Where only a bound is given, the exact number is not on record here.

From US9145351B2, “Azole derivatives, methods for producing the same, intermediate thereof, agro-horticultural agents” (KUREHA CORPORATION, priority 2009, dated 2015) come the findings set out here.

For the molecule `C[C@]1(CCl)CC[C@@H](Cc2cccc(Cl)c2)[C@]1(O)Cn1cncn1` (racemic) [Compound I-74, (1RS,2SR,5SR)-5-(3-chlorobenzyl)-2-chloromethyl-2-methyl-1-(1H-1,2,4-triazol-1-ylmethyl)cyclopentanol], the inhibition at 50 µg/mL in experiment [1] was 60 to 80%; in experiment [2] (setting [10]) it was over 80%; in experiment [3] (setting [12]), over 80%; in experiment [4] (setting [14]), over 80%; in experiment [5] it was 60 to 80%; in experiment [6] (setting [16]), over 80%. Also, the inhibition at 50 µg/mL in experiment [7] (setting [17]) and in experiment [8] (setting [18]) was over 80% throughout. Also, the inhibition at 5 µg/mL in experiment [2] (setting [9]) was 60 to 80%; in experiment [3] (setting [11]), over 80%; in experiment [4] (setting [13]), over 80%; in experiment [6] (setting [15]), over 80%; in experiment [7] (setting [17]) it was over 80%; in experiment [8] (setting [18]) it was over 80%.

In the case of `C[C@@]1(CCl)CC[C@H](Cc2ccc(Cl)cc2)[C@]1(O)Cn1cncn1` (racemic) [Compound I-401, (1RS,2RS,5RS)-5-(4-chlorobenzyl)-2-chloromethyl-2-methyl-1-[1,2,4]triazol-1-ylmethylcyclopentanol], the inhibition at 50 µg/mL in experiment [1] is 60 to 80%; in experiment [2] (setting [20]), over 80%; in experiment [3] (setting [22]), over 80%; in experiment [4] (setting [24]), over 80%; in experiment [5], 60 to 80%; in experiment [6] (setting [26]), over 80%. For the same molecule, the inhibition at 50 µg/mL in experiment [7] (setting [27]) and in experiment [8] (setting [28]) was over 80% throughout. Further, the inhibition at 5 µg/mL is 60 to 80% in experiment [2] (setting [19]); 60 to 80% in experiment [3] (setting [21]); over 80% in experiment [4] (setting [23]); over 80% in experiment [6] (setting [25]); over 80% in experiment [7] (setting [27]); over 80% in experiment [8] (setting [28]).

Take `C[C@]1(CBr)CC[C@@H](Cc2ccc(Cl)cc2)[C@]1(O)Cn1cncn1` (racemic) [Compound I-25, (1RS,2SR,5SR)-2-bromomethyl-5-(4-chlorobenzyl)-2-methyl-1-(1H-1,2,4-triazol-1-ylmethyl)cyclopentanol]: the inhibition at 50 µg/mL was 60 to 80% in experiment [1]; over 80% in experiment [2] (setting [10]); over 80% in experiment [3] (setting [12]); over 80% in experiment [4] (setting [14]); 60 to 80% in experiment [5]; over 80% in experiment [6] (setting [16]). Besides, the inhibition at 50 µg/mL in experiment [7] (setting [17]) and in experiment [8] (setting [18]) was over 80% in each case. The inhibition at 5 µg/mL in experiment [2] (setting [9]) was 60 to 80%; in experiment [3] (setting [11]) it was 40 to 60%; in experiment [4] (setting [13]) it was over 80%; in experiment [6] (setting [15]), over 80%; in experiment [7] (setting [17]), over 80%; in experiment [8] (setting [18]), over 80%.

As to `C[C@]1(CCl)CC[C@@H](Cc2ccc(Cl)cc2)[C@]1(O)Cn1ccnc1` (racemic) [Compound I-244, (1RS,2SR,5SR)-5-(4-chlorobenzyl)-2-chloromethyl-2-methyl-1-imidazol-1-ylmethylcyclopentanol], the inhibition at 50 µg/mL in experiment [1] is 60 to 80%; in experiment [2] (setting [20]), over 80%; in experiment [3] (setting [22]), over 80%; in experiment [4] (setting [24]), over 80%; in experiment [5] it was 60 to 80%; in experiment [6] (setting [26]), over 80%. In addition, the inhibition at 50 µg/mL in experiment [7] (setting [27]) and in experiment [8] (setting [28]) was over 80% in each case. Further, the inhibition at 5 µg/mL in experiment [2] (setting [19]), in experiment [3] (setting [21]), in experiment [4] (setting [23]), in experiment [6] (setting [25]), in experiment [7] (setting [27]) and in experiment [8] (setting [28]) was over 80% in each case.

`C[C@]1(CCl)CC[C@@H](Cc2ccc(F)cc2F)[C@]1(O)Cn1cncn1` (relative stereo) [Compound I-88]: the “Growth inhibition grade, A.m” value in experiment [2] (setting [29]) was 4 (% Mycerial growth inhibition of less than 80 to 60% or higher); in experiment [2] (setting [30]) it was 5 (% Mycerial growth inhibition of 80% or higher). Further, the “Growth inhibition grade, U.n” value in experiment [3] (setting [29]) and in experiment [3] (setting [30]) was 5 (% Mycerial growth inhibition of 80% or higher) throughout. Besides, the “Growth inhibition grade, G.f” value in experiment [4] (setting [29]) and in experiment [4] (setting [30]) was 5 (% Mycerial growth inhibition of 80% or higher) throughout. The “Growth inhibition grade, S.s” value in experiment [6] (setting [29]) and in experiment [6] (setting [30]) was 5 (% Mycerial growth inhibition of 80% or higher) throughout. Besides, the “Growth inhibition grade, F.g” value in experiment [7] (setting [29]) and in experiment [7] (setting [30]) was 5 (% Mycerial growth inhibition of 80% or higher) each time. The “Growth inhibition grade, P.o” value in experiment [8] (setting [29]) and in experiment [8] (setting [30]) was 5 (% Mycerial growth inhibition of 80% or higher) throughout.
